Results: patent publication US20240247318A1, “METHODS FOR DETECTING INACTIVATION OF THE HOMOLOGOUS REC[…] (BRCA1/2) IN HUMAN TUMORS” (Institute Curie, priority 2012, published 2024)

Tested on: triple-negative breast tumors
Test: clinical trial of Cisplatin treatment of patients with triple-negative breast tumors (GSE28330)
Assay type: in vivo, human
Settings: number of patients
Method: Two publically available data sets from clinical trial of Cisplatin treatment of patients with triple-negative breast tumors [GSE28330 GEO database][59] were processed and the number of LST_10 Mb was calculated for each tumor with good quality of measured profile. Genomic profiles were measured by two types of chip: Affymetrix Oncoscan 70K (Dataset 2) and Oncoscan 300K (Dataset 1). Information about mutational status of BRCA1/2 was available for some tumors. Response to treatment was measured by Miller-Payne score, where 4 and 5 were considered as “positive response”, while scores<4 were considered as “no response” Case by case and summary results are presented in Table 2 and Tables 3-5 (statistical comparisons were performed by the Fisher exact test).

## N.N.[Cl][Pt][Cl] [Cisplatin, cisplatin]
BRCA1/2 inactivated tumors
  Non Responders: 8
  Responders: 9
LST_high tumors (LST_10 Mb)
  Non Responders: 15
  Responders: 18
LST_low tumors (LST_10 Mb)
  Non Responders: 20
  Responders: 1
NON BRCA1/2 or NA tumors
  Non Responders: 27
  Responders: 10
